Assay results: ChEMBL document CHEMBL5329153, “Is structural hybridization invoking new dimensions for antimalarial drug discovery research?” (RSC Med Chem, 2023)
In brackets after ≈: the same amount, converted by molar mass.

Assays:
Assay type in all cases: functional, organism-based
[1] = system: Plasmodium falciparum; assay: Antimalarial activity against Chloroquine resistant Plasmodium falciparum W2 assessed as parasitic growth inhibition measured after 48 hrs by fluorescence based assay; conditions: W2, 48 h
[2] = system: Plasmodium falciparum; assay: Antimalarial activity against Chloroquine sensitive Plasmodium falciparum D6 assessed as parasitic growth inhibition
[3] = system: Plasmodium falciparum; assay: Antimalarial activity against Chloroquine resistant Plasmodium falciparum W2 assessed as parasitic growth inhibition
[4] = system: Plasmodium falciparum; assay: Antimalarial activity against Plasmodium falciparum 3D7 assessed as parasitic growth inhibition
[5] = system: Plasmodium falciparum; assay: Antimalarial activity against Plasmodium falciparum K1 assessed as parasitic growth inhibition
[6] = system: Plasmodium falciparum; assay: Antimalarial activity against Plasmodium falciparum Dd2 assessed as parasitic growth inhibition
[7] = system: Plasmodium falciparum; assay: Antimalarial activity against Plasmodium falciparum assessed as parasitic growth inhibition
[8] = system: Plasmodium falciparum; assay: Antimalarial activity against Chloroquine sensitive Plasmodium falciparum assessed as parasitic growth inhibition

Compound: O=C1c2ccc(N3CCCCC3)cc2C(=O)N1CCCCNc1ccnc2cc(Cl)ccc12
- IC50 [1]: 77 nM

Compound: O=C1c2ccc(N3CCN(CCO)CC3)cc2C(=O)N1CCCCNc1ccnc2cc(Cl)ccc12
- IC50 [1]: 14 nM

Compound: O=C1c2ccc(N3CCN(CCO)CC3)cc2C(=O)N1CCCCCCNc1ccnc2cc(Cl)ccc12
- IC50 [1]: 15 nM

Compound: O=C1c2cccc(N3CCOCC3)c2C(=O)N1CCCCCCNc1ccnc2cc(Cl)ccc12
- IC50 [1]: 25 nM

Compound: O=C1c2ccc(N3CCOCC3)cc2C(=O)N1CCCCCCNc1ccnc2cc(Cl)ccc12
- IC50 [1]: 19 nM

Compound: Cc1cc(NCCNc2ccnc3cc(Cl)ccc23)nc(Nc2ccc(C(=O)N3CCCCC3)cc2)n1
- IC50 [2]: 32 nM
- IC50 [3]: 33 nM

Compound: Cc1cc(NCCNc2ccnc3cc(Cl)ccc23)nc(Nc2ccc(C(=O)N3CCSCC3)cc2)n1
- IC50 [2]: 32 nM
- IC50 [3]: 33 nM

Compound: C[C@H]1[C@H](OC(=O)CCC(=O)OCCc2cn(-c3ccnc4cc(Cl)ccc34)nn2)O[C@@H]2O[C@]3(C)CC[C@H]4[C@H](C)CC[C@@H]1[C@@]24OO3
- EC50 [4]: 8 nM
- EC50 [5]: 2.6 nM
- EC50 [6]: 4.9 nM

Compound: Cc1cc(NCCCNc2ccnc3cc(Cl)ccc23)nc(Nc2ccc(C(=O)N3CCCC3)cc2)n1
- IC50 [2]: 32 nM
- IC50 [3]: 33 nM

Compound: C[C@H]1[C@@H](OCCCCc2cn(-c3cccc4cc(Cl)ccc34)nn2)O[C@@H]2O[C@]3(C)CC[C@H]4[C@H](C)CC[C@@H]1[C@@]24OO3
- EC50 [4]: 8.4 nM
- EC50 [5]: 3.7 nM
- EC50 [6]: 6.1 nM

Compound: O=C1c2ccc(N3CCN(CCO)CC3)cc2C(=O)N1CCNc1ccnc2cc(Cl)ccc12
- IC50 [1]: 44 nM

Compound: Cc1nc2ccccc2c(C)c1C(=O)NNC(=S)Nc1ccc(Cl)c(Cl)c1
- IC50 [7]: 0.19 µg/mL (≈ 0.453 µM)

Compound: Cc1nc2ccccc2c(C)c1C(=O)NNC(=S)NC(C)(C)C
- IC50 [7]: 0.25 µg/mL (≈ 0.757 µM)

Compound: O=C1c2ccc(N3CCOCC3)cc2C(=O)N1CCCCNc1ccnc2cc(Cl)ccc12
- IC50 [1]: 49 nM

Compound: Cc1cc(NCCCCCCNc2ccnc3cc(Cl)ccc23)nc(Nc2ccc(C(=O)N3CCSCC3)cc2)n1
- IC50 [2]: 32 nM
- IC50 [3]: 33 nM

Compound: O=C1c2cccc(N3CCCCC3)c2C(=O)N1CCCCCCNc1ccnc2cc(Cl)ccc12
- IC50 [1]: 75 nM

Compound: Cc1cc(NCCNc2ccnc3cc(Cl)ccc23)nc(Nc2ccc(C(=O)N3CCCC3)cc2)n1
- IC50 [2]: 32 nM
- IC50 [3]: 33 nM

Compound: Cc1cc(Nc2ccc(C(=O)N3CCSCC3)cc2)nc(NCCCCNc2ccnc3cc(Cl)ccc23)n1
- IC50 [2]: 32 nM
- IC50 [3]: 33 nM

Compound: Cc1cc(NCCCCNc2ccnc3cc(Cl)ccc23)nc(Nc2ccc(C(=O)N3CCCC3)cc2)n1
- IC50 [2]: 32 nM
- IC50 [3]: 33 nM

Compound: O=C(c1ccc(Nc2nccc(NCCCCNc3ccnc4cc(Cl)ccc34)n2)cc1)N1CCOCC1
- IC50 [2]: 32 nM
- IC50 [3]: 33 nM

Compound: O=C1c2cccc(N3CCOCC3)c2C(=O)N1CCCCNc1ccnc2cc(Cl)ccc12
- IC50 [1]: 71 nM

Compound: C[C@H]1[C@H](OC(=O)CCC(=O)NCCNc2ccnc3cc(Cl)ccc23)O[C@@H]2O[C@]3(C)CC[C@H]4[C@H](C)CC[C@@H]1[C@@]24OO3
- EC50 [4]: 2.7 nM
- EC50 [5]: 0.78 nM
- EC50 [6]: 1 nM

Compound: O=C(c1ccc(Nc2nccc(NCCCCNc3ccnc4cc(Cl)ccc34)n2)cc1)N1CCCCC1
- IC50 [2]: 32 nM
- IC50 [3]: 33 nM

Compound: Cc1cc(Nc2ccc(C(=O)N3CCSCC3)cc2)nc(NCCCNc2ccnc3cc(Cl)ccc23)n1
- IC50 [2]: 32 nM
- IC50 [3]: 33 nM

Compound: CC1=C(C(=O)Nc2ccc(Br)cn2)C(c2cn(-c3ccccc3)nc2-c2ccc(C)cc2)NC(=O)N1 (stereo not drawn)
- IC50 [8]: 0.08 µg/mL (≈ 0.147 µM)

Compound: Cc1cc(NCCCCCCNc2ccnc3cc(Cl)ccc23)nc(Nc2ccc(C(=O)N3CCOCC3)cc2)n1
- IC50 [2]: 32 nM
- IC50 [3]: 33 nM

Compound: C[C@H]1[C@H](OC(=O)CCC(=O)OCCNc2ccnc3cc(Cl)ccc23)O[C@@H]2O[C@]3(C)CC[C@H]4[C@H](C)CC[C@@H]1[C@@]24OO3
- EC50 [4]: 4.5 nM
- EC50 [5]: 1.7 nM
- EC50 [6]: 2.3 nM

Compound: Cc1cc(NCCNc2ccnc3cc(Cl)ccc23)nc(Nc2ccc(C(=O)N3CCOCC3)cc2)n1
- IC50 [2]: 32 nM
- IC50 [3]: 33 nM

Compound: C#CCCCN(CCNc1ccnc2cc(Cl)ccc12)C(=O)CCC(=O)O[C@@H]1O[C@@H]2O[C@]3(C)CC[C@H]4[C@H](C)CC[C@@H]([C@H]1C)[C@@]24OO3
- EC50 [4]: 3.5 nM
- EC50 [5]: 1.3 nM
- EC50 [6]: 1.6 nM

Compound: O=C(c1ccc(Nc2nccc(NCCCCNc3ccnc4cc(Cl)ccc34)n2)cc1)N1CCSCC1
- IC50 [2]: 32 nM
- IC50 [3]: 33 nM

Compound: C[C@H]1[C@H](OC(=O)CCC(=O)OCCCc2cn(-c3ccnc4cc(Cl)ccc34)nn2)O[C@@H]2O[C@]3(C)CC[C@H]4[C@H](C)CC[C@@H]1[C@@]24OO3
- EC50 [4]: 5.4 nM
- EC50 [5]: 2.4 nM
- EC50 [6]: 4.6 nM

Compound: O=C(c1ccc(Nc2nccc(NCCCNc3ccnc4cc(Cl)ccc34)n2)cc1)N1CCOCC1
- IC50 [2]: 32 nM
- IC50 [3]: 33 nM
